In patent publication US4376773A, “10-Substituted 5-cyanomethylene-10,11-dihydro-dibenzo-[a,d]-cycloheptenes, their preparation, and therapeutic agents containing these compounds” (BASF Aktiengesellschaft, priority 1980, dated 1983):
Where two headings read alike, the source gives them in different places.

What was measured:
Acute toxicity = settings: mouse, in vivo, ip; mice, intraperitoneal; read-out: Toxicity LD 50
Procedure: Groups of 5-10 female NMRI mice are given the compounds intraperitoneally. The LD 50 is determined as the dose after which 50% of the treated animals die.

death from physostigmine = test: Anticholinergic action: protection against physostigmine lethality; type: in vivo, mouse (female NMRI); settings: mice, oral, 30 min before physostigmine 0.825 mg/kg s.c.; dose protecting 50% against death
Procedure: Groups of 10 female NMRI mice are given physostigmine subcutaneously, at a lethal dose (0.825 mg/kg). The test substances are administered orally 30 minutes before the administration of physostigmine.
The ED 50% is determined as the dose of compound which protects 50% of the animals against death from physostigmine.

[1] = tested on: tonic extensor reflex on the rabbit gastrocnemius; test: Muscle-relaxing action: tonic extensor reflex; type: in vivo; settings: for ED50: Oryctolagus cuniculus, rabbit, intravenous, dose reducing muscle activity to half, read-out: Muscle relaxation ED 50%; for Muscle relaxation R.A. (relative activity): clozapine = 1.0
Description: The measurement is based on quantifying the tonic extensor reflex on the rabbit gastrocnemius (Teschendorf et al., Arch. Pharmacol. exp. Path. 266 (1970), 462). The rabbit is fixed in a special apparatus which permits bending the paw at the talocalcanean joint in a defined and reproducible manner. As a result of this bending, a tonic extensor reflex is triggered in the […]. The electrical activity of the muscle during contraction is registered and the individual pulses are counted. The extension (duration 5 s) is repeated at intervals of one minute. After a constant number of pulses has been reached (constituting the control value), the test compound is administered intravenously. The number of pulses after administration is related to the previous value. For each dose investigated, 4-6 animals are used. The ED 50% is the dose which reduces the muscle activity to half, based on the initial value.

[2] = tested on: orientation hypermotility; test: Sedative action: orientation hypermotility in mice; type: in vivo, mouse (female NMRI); settings: for ED50: Mus musculus, 0.5 h, mice, oral, 30 min after administration, 50% decrease in orientation hypermotility vs placebo, read-out: Sedation ED 50%; for Sedation R.A. (relative activity): clozapine = 1.0
Procedure: 4-8 groups of 3 female NMRI mice are given the compound orally. The orientation hypermotility induced by a new environment is determined photoelectrically, 30 minutes after administration of the compound, for a period of 30 minutes. The ED50 is the dose which produces a decrease in orientation hypermotility by 50%, compared to control animals treated with placebo.

[3] = tested on: methamphetamine-antagonism (sniffing movements); test: Antimethamphetamine action: methamphetamine-induced sniffing movements; type: in vivo, rat; settings: for ED50: ip, 0.5 h, rat, intraperitoneal, 30 min before methamphetamine 2.5 mg/kg i.v., read-out: Antimethamphetamine action ED 50%; for Antimethamphetamine action R.A. (relative activity): clozapine = 1.00
Procedure: Methamphetamine (2.5 mg/kg administered intravenously) regularly causes the following symptoms in rats: motor restlessness, searching and sniffing movements, bristling fur and tremor (Janssen et al., Arzneim.-Forsch./DrugRes. 13 (1963), 205; Randrug et al., Psychopharmacologia 11 (1967), 300). The test substances are administered intraperitoneally, 30 minutes before the methamphetamine. The criterion of whether a compound has an effect is whether the sniffing movements remain absent over 5 minutes' observation after the injection of methamphetamine. That dose is determined as the mean inhibitory dose (ED 50%) by means of Probit analysis which prevents the symptom in half the number of animals. Number of animals examined per dose: 10.

[4] = tested on: apomorphine-antagonism (mandibular movements); test: Antiapomorphine action: apomorphine-triggered mandibular movements; type: in vivo, rat (female Sprague-Dawley); settings: for ED50: 1.5 h, read-out: Antiapomorphine action ED 50%; for Antiapomorphine action R.A. (relative activity): clozapine = 1.00
Procedure: The test substances are administered orally 90 minutes before the apomorphine.

[5] = rat, oral, 90 min before apomorphine 1.5 mg/kg s.c.

SMILES	LD50 (Acute toxicity) [mg/kg]	ED50 protecting against physostigmine lethality (death from physostigmine)	ED50 [1] [mg/kg]	Muscle relaxation R.A. (relative activity) [1]	ED50 [2] [mg/kg]	Sedation R.A. (relative activity) [2]	ED50 [3] [mg/kg]	Antimethamphetamine action R.A. (relative activity) [3]	muscle-relaxing action compared with comparative substances ([1]; in words, vs clozapine and perlapine)	ED50 [4, 5] [mg/kg]	Antiapomorphine action R.A. (relative activity) [4]	ED50 ([4]; Rattus norvegicus, po) [mg/kg]
CN1CCN(C2Cc3ccccc3C(=CC#N)c3ccccc32)CC1 (mixture of isomers) [Example 1, cis,trans-5-Cyanomethylene-10-(4-methyl-piperazin-1-yl)-10,11-dihydro-dibenzo[a,d]-cycloheptene. 1/2 H2 O]	> 100	> 46.4	0.1	0.46	5.6	0.85	5.4	6.85				
CN1CCN(C2Cc3cc(Cl)ccc3C(=CC#N)c3ccccc32)CC1 (mixture of isomers) [Example 4, cis,trans-2-Chloro-5-cyanomethylene-10-(4-methylpiperazin-1-yl)-10,11-dihydro-dibenzo[a,d]-cycloheptene]			0.02	2.30	5.5	0.86	4.6	8.04	markedly surpasses those of the comparative substances			
CCN1CCN(C2Cc3ccccc3C(=CC#N)c3ccccc32)CC1 (mixture of isomers) [Example 5, cis,trans-5-Cyanomethylene-10-(4-ethyl-piperazin-1-yl)-10,11-dihydro-dibenzo[a,d]-cycloheptene. 1/2 H2 O]	> 100	> 46.4	0.1	0.46	6.7	0.71	13	2.85				
N#CC=C1c2ccccc2CC(N2CCN(CCO)CC2)c2ccccc21 (mixture of isomers) [Example 7, cis,trans-5-Cyanomethylene-10-(N-β-hydroxyethyl-piperazin-1-yl)-10,11-dihydro-dibenzo[a,d]-cycloheptene. 1/2 H2 O]	> 100	> 100			10	0.47	30	1.23				
C[N+]1([O-])CCN(C2Cc3ccccc3C(=CC#N)c3ccccc32)CC1 (mixture of isomers) [Example 8, cis, trans-5-Cyanomethylene-10-(4-methyl-4-oxy-piperazin-1-yl)-10,11-dihydro-dibenzo[a,d]-cycloheptene. 1/2 H2 O]	> 100	> 100			15.2	0.31	39	0.95		7	1.14	
CN1CCN(C2=Nc3cc(Cl)ccc3Nc3ccccc32)CC1 [Clozapine, clozapine, reference compound]			0.046	1.0		1.0	37	1.00		8	1.00	
CN1CCN(C2=Nc3ccccc3Cc3ccccc32)CC1 [Perlapine, perlapine, reference compound]			0.1	0.46	2.01	2.36	31	1.19			0.37	21.5
